What is called IC50 is the concentration needed to halve the response being measured.

This note sets out measurements from PMC10899606, “Thwarting resistance: MgrA inhibition with methylophiopogonanone a unveils a new battlefront against S. aureus” (NPJ Biofilms and Microbiomes, 2024).

Assay [1] concerns the target T1, MgrA (Staphylococcus aureus, UniProt P0C1S0).
T1 construct: homodimer in nature
Briefly: fluorescence anisotropy, inhibition of MgrA binding to DNA probe. Type of assay: biochemical.

The target of assay [2] is T1, MgrA. Briefly: intrinsic fluorescence quenching (ex […] nm), Stern-Volmer, linear regression. As to conditions: PBS, MgrA 2 nM; static quenching. Type of assay: binding.
Assay [3] has as its target T1, MgrA. Briefly: thermal shift assay (Sypro Orange). The format is binding. As to conditions: Tm is lowered by the compound; MgrA to Mo-A 1:10 molar ratio, 10 mM Tris, 150 mM NaCl, pH 7.5.

Where only a bound is given, the exact number is not on record here.

T1 sequence (P0C1S0 2-147): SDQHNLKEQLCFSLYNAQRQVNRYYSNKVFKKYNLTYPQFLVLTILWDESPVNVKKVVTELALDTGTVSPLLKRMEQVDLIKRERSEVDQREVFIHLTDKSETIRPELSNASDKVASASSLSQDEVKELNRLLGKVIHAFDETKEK

In the case of `Cc1c(O)c(C)c2c(c1O)C(=O)[C@H](Cc1ccc3c(c1)OCO3)CO2` [methylophiopogonanone A], at MgrA [1], the IC50 was 95.9 µM. Besides, on MgrA [2], the KA stood at 62500 L/mol. Moreover, the “∆Tm (decrease)” value on MgrA [3] is > 3 °C.
